# Measurements: patent US12516051B1, “Small molecule degraders and fluorescent probes of PXR” (St. Jude Children's Research Hospital, Inc., priority 2024, dated 2026)
# Where two headings read alike, the source gives them in different places.
# System: SNU-C4 HiBiT-PXR KI cells
# Assay: Cytotoxicity, CellTiter-Glo Luminescent Cell Viability Assay
# Type: cell-based
# Method: An Echo 655T Acoustic Liquid Handler was used to dispense 75 nL/well of DMSO or PROTAC dilution into white tissue culture-treated 384-well plates. For 24 h cytotoxicity, 25 μL assay media containing 1×10^4 cells was added to each well to match the conditions for the degradation assays. For 72 h cytotoxicity, 25 μL RPMI with 10% FBS containing 2.5×10^3 cells was added to each well to match normal growth conditions. […] After 24 h or 72 h, the CellTiter-Glo Luminescent Cell Viability Assay (Promega, cat. #G7572) and an EnVision microplate reader were used to assess cytotoxicity. DMSO wells with cells served as positive controls, and wells without cells served as negative controls. The percent cell viability for each well was calculated using equation 5,
# [1] = read-out: 24 h CC50, Table 2, 24 h treatment
# [2] = read-out: 72 h CC50, Table 2, 72 h treatment
# [3] = read-out: 24 h CC50, Table 3, 24 h treatment
# [4] = read-out: 72 h CC50, Table 3, 72 h treatment
SMILES,CC50 [1] [µM],CC50 [2] [µM],CC50 [3] [µM],CC50 [4] [µM]
"COc1ccc(OC)c(-n2nnc(C(=O)Nc3cc(OCCCCCCOCCOCC(=O)N[C@H](C(=O)N4C[C@H](O)C[C@H]4C(=O)NCc4ccc(-c5scnc5C)cc4)C(C)(C)C)cc(C(C)(C)C)c3)c2C)c1 [Compound 15, N-(3-(TERT-BUTYL)-5-((6-(2-(2-(((S)-1-((2S,4R)-4-HYDROXY-2-((4-(4-METHYLTHIAZOL-5 YL)BENZYL)CARBAMOYL)PYRROLIDIN-1-YL)-3,3-DIMETHYL-1-OXOBUTAN-2-YL)AMINO)-2-OXOETHOXY)ETHOXY)HEXYL)OXY)PHENYL)-1-(2,5-DIMETHOXYPHENYL)-5-METHYL-1H-1,2,3-TRIAZOLE-4-CARBOXAMIDE]",> 30,> 30,,
CCC[C@H](CC)Oc1ccc(C(=O)N[C@H](C(=O)N2C[C@H](O)C[C@H]2C(=O)NCc2ccc(-c3scnc3C)cc2)C(C)(C)C)cc1NC(=O)c1nnn(-c2cc(OC)ccc2OC)c1C [Compound 16],> 30,> 30,,
CCC[C@H](CC)Oc1ccc(C(=O)NCCCCC(=O)N[C@H](C(=O)N2C[C@H](O)C[C@H]2C(=O)NCc2ccc(-c3scnc3C)cc2)C(C)(C)C)cc1NC(=O)c1nnn(-c2cc(OC)ccc2OC)c1C [Compound 17],> 30,> 30,,
CCC[C@H](CC)Oc1ccc(C(=O)NCCOCCOCC(=O)N[C@H](C(=O)N2C[C@H](O)C[C@H]2C(=O)NCc2ccc(-c3scnc3C)cc2)C(C)(C)C)cc1NC(=O)c1nnn(-c2cc(OC)ccc2OC)c1C [Compound 18],> 30,> 30,,
CCC[C@H](CC)Oc1ccc(C(=O)NCCCCCCCCC(=O)N[C@H](C(=O)N2C[C@H](O)C[C@H]2C(=O)NCc2ccc(-c3scnc3C)cc2)C(C)(C)C)cc1NC(=O)c1nnn(-c2cc(OC)ccc2OC)c1C [Compound 19],> 30,> 30,,
CCC[C@H](CC)Oc1ccc(C(=O)NCCOCCOCCOCCOCC(=O)N[C@H](C(=O)N2C[C@H](O)C[C@H]2C(=O)NCc2ccc(-c3scnc3C)cc2)C(C)(C)C)cc1NC(=O)c1nnn(-c2cc(OC)ccc2OC)c1C [Compound 21],> 30,> 30,,
"COc1cc(OCC(=O)N[C@H](C(=O)N2C[C@H](O)C[C@H]2C(=O)NCc2ccc(-c3scnc3C)cc2)C(C)(C)C)c(C)cc1-n1nnc(S(=O)(=O)c2ccc(C(C)(C)C)cc2)c1C [Compound 22, (2S,4R)-1-((S)-2-(2-(4-(4-((4-(TERT-BUTYL)PHENYL)SULFONYL)-5-METHYL-1H-1,2,3-TRIAZOL-1-YL)-5-METHOXY-2-METHYLPHENOXY)ACETAMIDO)-3,3-DIMETHYLBUTANOYL)-4-HYDROXY-N-(4-(4-METHYLTHIAZOL-5 YL)BENZYL)PYRROLIDINE-2-CARBOXAMIDE]",,,> 30,> 30
"COc1cc(OCCCC(=O)N[C@H](C(=O)N2C[C@H](O)C[C@H]2C(=O)NCc2ccc(-c3scnc3C)cc2)C(C)(C)C)c(C)cc1-n1nnc(S(=O)(=O)c2ccc(C(C)(C)C)cc2)c1C [Compound 23, (2S,4R)-1-((S)-2-(4-(4-(4-((4-(TERT-BUTYL)PHENYL)SULFONYL)-5-METHYL-1H-1,2,3-TRIAZOL-1-YL)-5-METHOXY-2-METHYLPHENOXY)BUTANAMIDO)-3,3-DIMETHYLBUTANOYL)-4-HYDROXY-N-(4-(4-METHYLTHIAZOL-5-YL)BENZYL)PYRROLIDINE-2-CARBOXAMIDE]",,,> 30,> 30
"COc1cc(OCCOCCC(=O)N[C@H](C(=O)N2C[C@H](O)C[C@H]2C(=O)NCc2ccc(-c3scnc3C)cc2)C(C)(C)C)c(C)cc1-n1nnc(S(=O)(=O)c2ccc(C(C)(C)C)cc2)c1C [Compound 24, (2S,4R)-1-((S)-2-(3-(2-(4-(4-((4-(TERT-BUTYL)PHENYL)SULFONYL)-5-METHYL-1H-1,2,3-TRIAZOL-1-YL)-5-METHOXY-2-METHYLPHENOXY)ETHOXY)PROPANAMIDO)-3,3-DIMETHYLBUTANOYL)-4-HYDROXY-N-(4-(4-METHYLTHIAZOL-5-YL)BENZYL)PYRROLIDINE-2-CARBOXAMIDE]",,,> 30,> 30
"COc1cc(OCCCCCCCC(=O)N[C@H](C(=O)N2C[C@H](O)C[C@H]2C(=O)NCc2ccc(-c3scnc3C)cc2)C(C)(C)C)c(C)cc1-n1nnc(S(=O)(=O)c2ccc(C(C)(C)C)cc2)c1C [Compound 25, (2S,4R)-1-((S)-2-(8-(4-(4-((4-(TERT-BUTYL)PHENYL)SULFONYL)-5-METHYL-1H-1,2,3-TRIAZOL-1-YL)-5-METHOXY-2-METHYLPHENOXY)OCTANAMIDO)-3,3-DIMETHYLBUTANOYL)-4-HYDROXY-N-(4-(4-METHYLTHIAZOL-5-YL)BENZYL)PYRROLIDINE-2-CARBOXAMIDE]",,,> 30,> 30
"COc1cc(OCCOCCOCCC(=O)N[C@H](C(=O)N2C[C@H](O)C[C@H]2C(=O)NCc2ccc(-c3scnc3C)cc2)C(C)(C)C)c(C)cc1-n1nnc(S(=O)(=O)c2ccc(C(C)(C)C)cc2)c1C [Compound 26, (2S,4R)-1-((S)-2-(3-(2-(2-(4-(4-((4-(TERT-BUTYL)PHENYL)SULFONYL)-5-METHYL-1H-1,2,3-TRIAZOL-1-YL)-5-METHOXY-2-METHYLPHENOXY)ETHOXY)ETHOXY)PROPANAMIDO)-3,3-DIMETHYLBUTANOYL)-4-HYDROXY-N-(4-(4-METHYLTHIAZOL-5-YL)BENZYL)PYRROLIDINE-2-CARBOXAMIDE]",,,> 30,> 30
"COc1cc(OCCOCCOCCOCCC(=O)N[C@H](C(=O)N2C[C@H](O)C[C@H]2C(=O)NCc2ccc(-c3scnc3C)cc2)C(C)(C)C)c(C)cc1-n1nnc(S(=O)(=O)c2ccc(C(C)(C)C)cc2)c1C [Compound 27, (2S,4R)-1-((S)-14-(TERT-BUTYL)-1-(4-(4-((4-(TERT-BUTYL)PHENYL)SULFONYL)-5-METHYL-1H-1,2,3-TRIAZOL-1-YL)-5-METHOXY-2-METHYLPHENOXY)-12-OXO-3,6,9-TRIOXA-13-AZAPENTADECAN-15-OYL)-4-HYDROXY-N-(4-(4-METHYLTHIAZOL-5-YL)BENZYL)PYRROLIDINE-2-CARBOXAMIDE]",,,> 30,> 30
"COc1cc(OCCCCCCOCCOCC(=O)N[C@H](C(=O)N2C[C@H](O)C[C@H]2C(=O)NCc2ccc(-c3scnc3C)cc2)C(C)(C)C)c(C)cc1-n1nnc(S(=O)(=O)c2ccc(C(C)(C)C)cc2)c1C [Compound 28, (2S,4R)-1-((S)-2-(2-(2-((6-(4-(4-((4-(TERT-BUTYL)PHENYL)SULFONYL)-5-METHYL-1H-1,2,3-TRIAZOL-1-YL)-5-METHOXY-2-METHYLPHENOXY)HEXYL)OXY)ETHOXY)ACETAMIDO)-3,3-DIMETHYLBUTANOYL)-4-HYDROXY-N-(4-(4-METHYLTHIAZOL-5-YL)BENZYL)PYRROLIDINE-2-CARBOXAMIDE]",,,> 30,> 30
"COc1cc(OCCOCCOCCOCCOCCC(=O)N[C@H](C(=O)N2C[C@H](O)C[C@H]2C(=O)NCc2ccc(-c3scnc3C)cc2)C(C)(C)C)c(C)cc1-n1nnc(S(=O)(=O)c2ccc(C(C)(C)C)cc2)c1C [Compound 29, (2S,4R)-1-((S)-17-(TERT-BUTYL)-1-(4-(4-((4-(TERT-BUTYL)PHENYL)SULFONYL)-5-METHYL-1H-1,2,3-TRIAZOL-1-YL)-5-METHOXY-2-METHYLPHENOXY)-15-OXO-3,6,9,12-TETRAOXA-16-AZAOCTADECAN-18-OYL)-4-HYDROXY-N-(4-(4-METHYLTHIAZOL-5-YL)BENZYL)PYRROLIDINE-2-CARBOXAMIDE]",,,> 30,> 30
